Experimental data from patent US20110275606A1, “SUBSTITUTED PORPHYRINS” (DUKE UNIVERSITY, priority 2009, published 2011).

Legend:
SOD-deficient E. coli = test: Aerobic growth of SOD-deficient E. coli in minimal medium (turbidimetry at 700 nm); type: cell-based, Escherichia coli; conditions: 20 and 30 μM, 19th hour, positive control MnTE-2-PyP^5+
Procedure: Escherichia coli (E. coli) strains used were AB1157, wild type (F-thr-1; leuB6; proA2; his-4; thi-1; argE2; lacY1; galK2; rpsL; supE44; ara-14; xyl-15; mtl-1; tsx-33), and JI1132, SOD-deficient, sodA-sodB-(same as AB1157 plus (sodA::mudPR13)25 (sodB-kan)1-Δ2). Both strains were obtained from J. A. Imlay. In addition to AB/JI strains another strain GC and its SOD-deficient analogue QC were used. The experiments were carried out as described in more detail in Reboucas et al., Dalton Trans., 2008, 1233-42. Briefly, cultures were grown aerobically in a 5 amino acid restricted medium (L-leucine, L-threonine, L-proline, L-arginine, L-histidine) in flasks on a water bath shaker at 37° C. and 200 rpm. The effect of the compound of Example 1 on the growth of these strains was followed turbidimetrically at 700 nm (to minimize the interference of compounds studied) and compared to the growth curves of both strains in the absence of Mn porphyrin (controls). Deionized water was used throughout the study. The effects are shown in FIG. 2 for one strain (QC and GC) and in FIG. 3 for other strain (AB and JI). […] The effects varied with the type of the strain.

[1] = Redox properties: E1/2 of the Mn^IIIP/Mn^IIP redox couple; type: physicochemical
Procedure: (§1) Table indicating the redox properties (E1/2 of the Mn^IIIP/Mn^IIP redox couple) and antioxidant (log kcat for the dismutation of superoxide, O2′^−) properties of ortho and meta isomers of Mn N-substituted pyridylporphyrins. The E1/2 and log kcat were determined as described in Reboucas et al., Dalton Trans., 2008, 1233-42. Rf is the ratio of the drug path over solvent path on thin-layer silica with water/acetonitrile/KNO3 saturated water and is a measure of […]. […] In addition, as the length of the pyridyl substituent increases the SOD activity of the ortho compounds drops while there is no change in the SOD activity of the meta compounds.

[2] = Antioxidant properties: log kcat for the dismutation of superoxide (SOD activity); type: biochemical
Procedure: as §1

WT cells = test: XTT cell proliferation, radiation-induced cytotoxicity; type: cell-based; conditions: 5 Gy, 48 hours post-radiation, compared to untreated irradiated WT cells
Procedure: XTT, a tetrazolium salt, is used to measure cell viability after irradiation exposure. XTT is reduced by viable mitochondria to formazan, which causes a colorimetric change that can be measured at 450 nm. Approximately 5×10^4 cells are seeded per well in 96-well plates and incubated for 18 hours in fresh medium along with the compound at the final concentration indicated (3 replicates each). One set of plates is used as an unirradiated control and the other set was irradiated with 5 Gy. Five Gy is the optimal dose for observing efficient cytotoxicity within 48 hours. An XTT cell proliferation kit (Roche) is used to measure this cytotoxicity. All assays are performed in triplicate and the absorbance is read on a Spectramax plate reader. XTT is used to assess both the toxicity of the compounds and the effect of each compound on IR-induced cytotoxicity. All cells are pre-treated with the indicated compound two hours prior to being irradiated with 5 Gy and are assayed for viability 48 hours post-radiation.

wild type cells = test: Annexin V/propidium iodide post-radiation apoptosis, wild type cells; type: cell-based; conditions: 5 Gy
Procedure: (§2) Annexin V/propidium iodide staining is used as a second method to measure radiation-induced cytotoxicity. Cells are incubated in fresh medium along with the compounds at the final concentrations indicated. One set of samples is irradiated (5 Gy) to efficiently induce apoptosis within 48 hours. An annexin V/propidium iodide kit (BioVision) is used to detect apoptotic cells. The annexin V is labeled with fluorescein isothiocyanate (FITC) to detect phospholipid phosphatidylserine (PS) on the outer membrane of apoptotic cells; propidium iodide (PI) is used to detect necrotic cells. The assay is performed according to the manufacturer's instructions. Briefly, approximately 5×10^5 cells are washed in PBS, resuspended in annexin V and PI staining solution for 15 min at room temperature and analyzed immediately by flow cytometry (Flow Cytometry Core, UCLA). Annexin V and propidium iodide staining is used to measure post-radiation apoptosis.

A-T cells = test: Annexin V/propidium iodide post-radiation apoptosis, A-T cells; type: cell-based; conditions: 5 Gy
Procedure: as §2

Wildtype (WT) cells = test: Gamma H2AX immunofluorescence, radiation-induced DNA damage; type: cell-based; conditions: 2 Gy, assessed at 15 minutes
Procedure: Radiation-induced DNA damage recognition is measured by γ-H2AX immunofluorescence. Wildtype (WT) cells are propagated in fresh medium with the compounds at specified concentrations. […] WT cells are collected at log phase of their growth cycle, after an 18-hour incubation with the indicated compounds. After treatment, the cells are irradiated with 2 Gy and assessed at 15 minutes. These conditions maximize the yield of DNA damaged cells while minimizing cytotoxicity. The cells are dropped onto cover slips and fixed with 4% paraformaldehyde, semi-permeabilized with 0.5% Triton-X 100 and washed with PBS. Cells are incubated with 1:400 dilution of mouse monoclonal antibody to γ-H2AX (Upstate Biotechnology), followed by 1:200 dilution of goat anti-mouse IgG antibody to immunoglobulin labeled with FITC (Jackson Immunochemicals) in PBS containing 10% FBS for 1.5 and 1 h, respectively. Slides are analyzed for γ-H2AX nuclear foci formation with FISH analysis software (Vysis) on a Leica DM RXA automated microscope equipped with Photometrix SenSyn. All slides are coded by one person and read blindly by another.

CD1 male mice = test: Carrageenan-induced pleurisy; type: in vivo; conditions: 0.3 mg/kg; 4 h after carrageenan
Procedure: Pleurisy is induced by carrageenan. Six to eight week old CD1 male mice are used. The mice are anesthetized with isoflurane and a skin incision is made at the level of the left sixth intercostal space. The underlying muscle is dissected and saline (0.2 ml) or saline containing 1% (w/v) λ-carrageenan (Sigma-Aldrich Ltd, 0.2 ml) is injected into the pleural cavity. The skin incision is closed with a suture and the animals are allowed to recover. At 4 h after the injection of carrageenan, the animals are killed. The chest is carefully opened and the pleural cavity is rinsed with 2 ml of saline solution containing heparin (5 U/ml) and indomethacin (10 μg/ml). The exudate and washing solution is removed by aspiration and the total volume is measured. Any exudate, which is contaminated with blood, is discarded. The amount of exudate is calculated by subtracting the volume injected (2 ml) from the total volume recovered. The leukocytes in the exudate are suspended in phosphate-buffer saline (PBS, 0.01M, pH7.4) and counted with an optical microscope in a Burker's chamber after vital Trypan Blue staining.

Male Sprague-Dawley rats = test: Carrageenan-induced paw oedema; type: in vivo; conditions: 0.3 mg/kg; rat paw
[3] = tested on: B16F10 melanoma cell line; test: Hyperthermia plus Mn porphyrin, tumor growth delay; type: in vivo, C57/BL6 mice; conditions: combination with hyperthermia (1d, 5d, 8d); 5 mg/kg twice per day; sacrifice day 9
Procedure: Treatment with hyperthermia and Mn porphyrins leads to a significant delay in tumor growth. In C57/BL6 mice, B16F10 melanoma cell line ([…]) is implanted in right flank. […] Tumor volumes are measured. Animals are sacrificed at day 9.

[4] = tested on: 4T1 window chamber tumors; test: Radiosensitivity of tumor vasculature in vivo (window chamber); set-up: species or system mice; conditions: combined with radiation 3 x 5 Gy; 6 mg/kg/day for three days; between 48 and 72 hours post-radiation
Procedure: 4T1 window chamber tumors are randomized to treatment with PBS or MnTE-2-PyP^5+, and radiation or sham-irradiation. […] Tumors are imaged immediately after radiation (0 hours), and every day thereafter (24, 48, and 72 hours), and these images are used to calculate the tumor vascular length densities.
Mice are anesthetized with sodium pentobarbital (80 mg/kg, i.p.), and a 1-cm diameter circular incision is made in the dorsal skin flap, over which a titanium chamber is surgically implanted. A 10-μL suspension of tumor cells (5×10^3 cells) is then injected into the opposing flap of skin. […] Observations of window chamber tumors are performed daily on restrained, unanaesthetized mice with an inverted Zeiss fluorescence microscope (Carl Zeiss, Jena, Germany). Images are captured onto a personal computer with Scion Image software (Frederick, Md.) and analyzed with Adobe Photoshop (San Jose, Calif.). Tumor volume and vascular length densities are calculated as follows. Briefly, tumor volumes are calculated with the formula: d^2(3.14/2), where the diameter is determined from low-power (2.5×) microscopy images by comparing pixel dimensions with micrometer values. Vascular length densities are measured from medium-power (5×) fields by using image analysis software (Scion Image) to trace the vascular network. […]

[5] = Thin layer chromatography Rf (lipophilicity); type: physicochemical; conditions: thin-layer silica, saturated KNO3(aq):H2O:MeCN (1:1:8); measure of lipophilicity
Procedure: Thin layer chromatography (TLC) was carried out in polyester-backed silica-gel sheets without fluorescent indicator (Sigma-Aldrich Z122777-25EA) cut into ˜2×20 cm strips and eluted with a saturated KNO3(aq):H2O:MeCN (1:1:8, v/v/v) mixture in a capped 1 L chamber. Typically, 1 microliter of ˜1 mM samples were applied at ˜1 cm of the strip border and the solvent front was allowed to run ˜12 cm.
as §1
Rf is a measure of lipophilicity and is linearly related to log P where P is the partition coefficient between water and n-octanol. (Kos et al., Free Radic. Biol. Med., 47, 72-78, 2009, which is incorporated by reference herein).

Molecule	protecting E. coli compared with MnTE-2-PyP^5+ (FIG. 3) (SOD-deficient E. coli; SOD-deficient strain JI / wild type AB)	protecting E. coli compared with MnTE-2-PyP^5+ (FIG. 2) (SOD-deficient E. coli; SOD-deficient strain QC / wild type GC)	E1/2 [1]	logkcat [2]	reduction of IR-induced cytotoxicity (WT cells) [%]	reduction in the percentage of apoptotic cells after radiation exposure (wild type cells) [%]	reduction in the percentage of apoptotic cells after radiation exposure (A-T cells) [%]	reduction of IR-induced γ-H2AX immunofluorescent nuclear foci (IRIFs) (Wildtype (WT) cells) [%]	decrease of myeloperoxidase activity (CD1 male mice)	decrease of number of polymorphonuclear cells (CD1 male mice)	decrease of volume of exudates (CD1 male mice)	decrease of myeloperoxidase activity (Male Sprague-Dawley rats)	decrease of number of polymorphonuclear cells (Male Sprague-Dawley rats)	delay of tumor growth [3]	tumor devascularization (vascular length density) [4]	Rf [5]
MnTnPrOH-3-PyP^5+	better	similar	+52 mV	6.83	50	60	40	57	to control levels	to control levels	to control levels	to control levels	to control levels	Full delay of tumor growth	significant tumor devascularization	–
OCCC[n+]1cccc(-c2c3nc(c(-c4ccc[n+](CCCO)c4)c4ccc([nH]4)c(-c4ccc[n+](CCCO)c4)c4nc(c(-c5ccc[n+](CCCO)c5)c5ccc2[nH]5)C=C4)C=C3)c1 [H2TnPrOH-3-PyP]	–	–	–	–	–	–	–	–	–	–	–	–	–	–	–	0.1
OCCC[n+]1ccccc1-c1c2nc(c(-c3cccc[n+]3CCCO)c3ccc([nH]3)c(-c3cccc[n+]3CCCO)c3nc(c(-c4cccc[n+]4CCCO)c4ccc1[nH]4)C=C3)C=C2 [H2TnPrOH-2-PyP]	–	–	–	–	–	–	–	–	–	–	–	–	–	–	–	0.09
MnTnPrOH-2-PyP^5+	–	–	+238 mV	7.38	50	60	40	57	to control levels	to control levels	to control levels	to control levels	to control levels	Full delay of tumor growth	significant tumor devascularization	0.05
